Data: patent US5620864A, “Acceptor for fucosyl transferase” (Health Research, Inc., priority 1992, dated 1997)
Several values for one entry are separate records, joined by “and”; a condition that tells them apart may be missing. Equal values may be shown once.

What was measured:
[1] = target: T1, serum α1,3-L-fucosyltransferase (Homo sapiens, UniProt P51993); test: Detection of serum α1,3-L-fucosyltransferase in six ovarian cancer sera and one normal serum; assay type: biochemical; settings: for percentage of the ratio between the CPM obtained for cancer serum and normal serum: acceptor 0.30 mM; for α1,3 fucosyltransferase activity of the cancer sera as compared to the normal serum: range over six ovarian cancer sera, acceptor 0.3 mM
T1 construct: Sera were collected from healthy females and ovarian cancer patients; from tissue; host or cells: blood serum of ovarian cancer patients and healthy females
T1 sequence (P51993 35-359 limits assumed): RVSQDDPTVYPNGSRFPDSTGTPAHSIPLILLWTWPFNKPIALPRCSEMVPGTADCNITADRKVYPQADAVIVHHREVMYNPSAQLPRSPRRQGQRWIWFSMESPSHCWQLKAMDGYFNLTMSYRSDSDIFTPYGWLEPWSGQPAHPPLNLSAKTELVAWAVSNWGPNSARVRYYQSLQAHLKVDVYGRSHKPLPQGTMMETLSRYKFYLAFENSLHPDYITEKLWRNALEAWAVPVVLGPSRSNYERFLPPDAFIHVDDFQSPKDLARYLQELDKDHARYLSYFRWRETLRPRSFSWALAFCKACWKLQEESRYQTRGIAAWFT
Procedure: Sera were collected from healthy females and ovarian cancer patients admitted to Roswell Park Cancer Institute in Buffalo, N.Y., USA. Ovarian tumor tissues were obtained during surgical procedures from patients with ovarian cancer. Both sera and tissues were stored frozen at -70° C. until use.
(§1) An incubation mixture contained 50 mM HEPES-NaOH, pH 7.5, 5 mM MnC12, 7 mM ATP, 3 mM NaN3, the acceptor 0.3 mM (for serum enzyme) or 3.0 mM (for tumor enzyme), 0.125 μCi of GDP-[U-^14 C] Fuc (Sp. Act. 216 mCi/mmol) and enzyme in a total volume of 0.10 ml; the control incubation mixture had everything except the acceptor. At the end of incubation at 37° C. for 18 h, the mixture was diluted with 1 ml water and passed through Dowex-1-C1 column (1 ml in a Pasteur pipet). The column was washed twice with 1 ml water; the breakthrough and wash, which contained the [^14 C] fucosylated neutral acceptor, were collected together in a scintillation vial and counted for radioactivity using the scintillation coctail 3a70 (Research Products International, Mount Prospects, Ill.) and Beckman LS9000. The Dowex column was then eluted successively with 3 ml each of 0.1M and 0.2M NaCl; these eluates which contained the [^14 C] fucosylated sulfated acceptors, were counted for radioactivity as before. Corrections were made by subtracting the radioactivity in the water and NaCl eluates of the control incubation mixture from the corresponding test fractions. The duplicate runs of samples gave almost identical values, the difference being <5%.
(§2) The superiority of 3'-sulfo LacNAc over 2'-methyl LacNAc as the substrate for measuring serum α1,3 fucosyltransferase was tested in three different ways. First, the incubation mixtures in duplicate contained 0.3 mM 3'-sulfo LacNAc and varying amounts of 2'-methyl LacNAc (0 to 7.5 mM); the incorporation of [^14 C] fucose by the serum enzyme into both substrates was measured (Table III). The incorporation of [^14 C] fucose into 3'-sulfo LacNAc decreased and into 2'-methyl LacNAc increased with the increase in the concentration of the latter. […] 25 fold less than 2' methyl LacNAc. Secondly, the incubation mixtures in duplicate contained 3.0 mM 2'-methyl LacNAc and varying amounts of 3'-sulfo LacNAc (0 to 0.75 mM); the incorporation of [^14 C] fucose by the same serum enzyme into both substrates was measured (Table III). The [^14 C] fucose incorporation into 2'-methyl LacNAc decreased and into 3'-sulfo LacNAc increased by increasing the concentration of the latter. […] Thirdly, both 2'-methyl LacNAc and 3'-sulfo LacNAc at 0.3 mM concentration were incubated separately in duplicates with six ovarian cancer sera and one normal serum; the incorporation of [^14 C] fucose into these acceptors were quantitated (Table IV). The [^14 C] fucose incorporation into 3'-sulfo LacNAc was consistently higher (4-5 fold) than that into 2'-methyl LacNAc, including the assay of the normal serum. […] These values indicate that 3'-sulfo LacNAc is a very high affinity acceptor for α1,3 fucosyltransferase. The [^14 C] fucosylated product arising from 3'-sulfo LacNAc has been tentatively identified as 3'-sulfo, 3-fucosyl LacNAc by comparing strictly its mobility on paper with the synthetic authentic compound 3'-sulfo, 3-fucosyl LacNAc (see FIG. 5).

[2] = system: serum α1,3-L-fucosyltransferase; test: Acceptor ability in presence of the competitive substrate (3'-sulfo LacNAc vs 2'-methyl LacNAc), ovarian cancer sera; assay type: biochemical, human; settings: for Km: serum enzyme
Procedure: as §1, §2

[3] = 2'-Methyl LacNAc 3.0 mM + 3'-Sulfo LacNAc 0 mM
[4] = 2'-Methyl LacNAc 3.0 mM + 3'-Sulfo LacNAc 0.15 mM
[5] = 2'-Methyl LacNAc 3.0 mM + 3'-Sulfo LacNAc 0.30 mM
[6] = 2'-Methyl LacNAc 3.0 mM + 3'-Sulfo LacNAc 0.45 mM
[7] = 2'-Methyl LacNAc 3.0 mM + 3'-Sulfo LacNAc 0.65 mM
[8] = 2'-Methyl LacNAc 3.0 mM + 3'-Sulfo LacNAc 0.75 mM
[9] = 3'-Sulfo LacNAc 0.3 mM + 2'-Methyl LacNAc 0 mM
[10] = 3'-Sulfo LacNAc 0.3 mM + 2'-Methyl LacNAc 1.5 mM
[11] = 3'-Sulfo LacNAc 0.3 mM + 2'-Methyl LacNAc 3.0 mM
[12] = 3'-Sulfo LacNAc 0.3 mM + 2'-Methyl LacNAc 4.5 mM
[13] = 3'-Sulfo LacNAc 0.3 mM + 2'-Methyl LacNAc 6.0 mM
[14] = 3'-Sulfo LacNAc 0.3 mM + 2'-Methyl LacNAc 7.5 mM

| Incorporation of [14C] Fucose (CPM) into the Acceptor (0.30 mM) ([1]; Normal Serum) [CPM] | Incorporation of [14C] Fucose (CPM) into the Acceptor (0.30 mM) ([1]; Ovarian Cancer Serum 1) [CPM] | percentage of the ratio between the CPM obtained for cancer serum and normal serum ([1]; Ovarian Cancer Serum 1) [%] | Incorporation of [14C] Fucose (CPM) into the Acceptor (0.30 mM) ([1]; Ovarian Cancer Serum 2) [CPM] | percentage of the ratio between the CPM obtained for cancer serum and normal serum ([1]; Ovarian Cancer Serum 2) [%] | Incorporation of [14C] Fucose (CPM) into the Acceptor (0.30 mM) ([1]; Ovarian Cancer Serum 3) [CPM] | percentage of the ratio between the CPM obtained for cancer serum and normal serum ([1]; Ovarian Cancer Serum 3) [%] | Incorporation of [14C] Fucose (CPM) into the Acceptor (0.30 mM) ([1]; Ovarian Cancer Serum 4) [CPM] | percentage of the ratio between the CPM obtained for cancer serum and normal serum ([1]; Ovarian Cancer Serum 4) [%] | Incorporation of [14C] Fucose (CPM) into the Acceptor (0.30 mM) ([1]; Ovarian Cancer Serum 5) [CPM] | percentage of the ratio between the CPM obtained for cancer serum and normal serum ([1]; Ovarian Cancer Serum 5) [%] | Incorporation of [14C] Fucose (CPM) into the Acceptor (0.30 mM) ([1]; Ovarian Cancer Serum 6) [CPM] | percentage of the ratio between the CPM obtained for cancer serum and normal serum ([1]; Ovarian Cancer Serum 6) [%] | α1,3 fucosyltransferase activity of the cancer sera as compared to the normal serum [1] | Incorporation of [14C] Fucose (CPM) [2, 3] [CPM] | Incorporation of [14C] Fucose (CPM) [2, 4] [CPM] | Incorporation of [14C] Fucose (CPM) [2, 5] [CPM] | Incorporation of [14C] Fucose (CPM) [2, 6] [CPM] | Incorporation of [14C] Fucose (CPM) [2, 7] [CPM] | Incorporation of [14C] Fucose (CPM) [2, 8] [CPM] | SMILES | also measured |
| --- | --- | --- | --- | --- | --- | --- | --- | --- | --- | --- | --- | --- | --- | --- | --- | --- | --- | --- | --- | --- | --- |
| 397 | 1325 | 334 | 1724 | 434 | 1359 | 342 | 1347 | 339 | 699 | 176 | 975 | 246 | 176%-434% | 3664 | 2581 | 2191 | 1737 | 1184 | 1187 | CO[C@H]1[C@H](O[C@H]2[C@H](O)[C@@H](NC(C)=O)C(O)O[C@@H]2CO)O[C@H](CO)[C@H](O)[C@@H]1O (some centres unmarked) [2'-methyl LacNAc] | inhibition of the [14C] fucose incorporation into 3'-sulfo LacNAc ([2]; 2'-methyl LacNAc 7.5 mM, 3'-sulfo LacNAc 0.3 mM): 43%; Km ([2]; 2'-methyl LacNAc in presence of 0.3 mM 3'-sulfo LacNAc): 6.67 mM; Incorporation of [14C] Fucose (CPM) [2, 9]: 157 CPM; Incorporation of [14C] Fucose (CPM) [2, 10]: 1143 CPM; Incorporation of [14C] Fucose (CPM) [2, 11]: 1614 CPM; Incorporation of [14C] Fucose (CPM) [2, 12]: 1973 CPM; Incorporation of [14C] Fucose (CPM) [2, 13]: 2698 CPM; Incorporation of [14C] Fucose (CPM) [2, 14]: 2788 CPM; inhibition by 2'-methyl LacNAc of incorporation into 3'-sulfo LacNAc ([2]; 3'-sulfo LacNAc present at 3.0 mM): no inhibition |
| 1543 | 7310 | 474 | 9816 | 636 | 5261 | 341 | 5480 | 355 | 3088 | 200 | 5483 | 355 | 200%-636% | 140 | 1294 | 2181 | 2417 | 2373 | 2560 | CC(=O)N[C@H]1C(O)O[C@H](CO)[C@@H](O[C@@H]2O[C@H](CO)[C@H](O)[C@H](OS(=O)(=O)O)[C@H]2O)[C@@H]1O (stereo partly drawn) [3'-Sulfo-LacNAc, SODIUM β-D-GALACTOPYRANOSYL 3-SULFATE-(1→4)-2-ACETAMIDO-2-DEOXY-D-GLUCOPYRANOSE] | Ratio B/A (CPM into 3'-Sulfo LacNAc / CPM into 2'-Methyl LacNAc) ([1]; Normal Serum): 3.89; Ratio B/A (CPM into 3'-Sulfo LacNAc / CPM into 2'-Methyl LacNAc) ([1]; Ovarian Cancer Serum 1): 5.52; Ratio B/A (CPM into 3'-Sulfo LacNAc / CPM into 2'-Methyl LacNAc) ([1]; Ovarian Cancer Serum 2): 6.69; Ratio B/A (CPM into 3'-Sulfo LacNAc / CPM into 2'-Methyl LacNAc) ([1]; Ovarian Cancer Serum 3): 3.87; Ratio B/A (CPM into 3'-Sulfo LacNAc / CPM into 2'-Methyl LacNAc) ([1]; Ovarian Cancer Serum 4): 4.06; Ratio B/A (CPM into 3'-Sulfo LacNAc / CPM into 2'-Methyl LacNAc) ([1]; Ovarian Cancer Serum 5): 4.42; Ratio B/A (CPM into 3'-Sulfo LacNAc / CPM into 2'-Methyl LacNAc) ([1]; Ovarian Cancer Serum 6): 5.62; sensitivity / [14C] fucose incorporation relative to 2'-methyl LacNAc ([1]; blood sera, acceptors 0.3 mM): 3 to 5 fold and 4-5 fold; Incorporation of [14C] Fucose (CPM) [2, 9]: 2520 CPM; Incorporation of [14C] Fucose (CPM) [2, 10]: 2132 CPM; Incorporation of [14C] Fucose (CPM) [2, 11]: 1872 CPM; Incorporation of [14C] Fucose (CPM) [2, 12]: 1748 CPM; Incorporation of [14C] Fucose (CPM) [2, 13]: 1712 CPM; Incorporation of [14C] Fucose (CPM) [2, 14]: 1428 CPM; inhibition of the [14C] fucose incorporation into 2'-methyl LacNAc ([2]; 3'-Sulfo LacNAc 0.75 mM, 2'-methyl LacNAc 3.0 mM): 68%; Km ([2]; 3'-sulfo LacNAc in presence of 3.0 mM 2'-methyl LacNAc): 0.12 mM |
